Results taken from patent publication US20260234188A1, “CHEMOKINE-BINDING PEPTIDES” (Oxford University Innovation Limited, priority 2022, published 2026).
“Also recorded” adds a separate entry of the source.

Experiments:
[1] = tested on: panel of 24 biotinylated chemokines; test: Phage-display screen of HD2 NNK saturation mutagenesis library; assay type: binding, human; conditions: for Chemokines Bound log2E 1-5 / Chemokines Bound log2E > 5: HD2 saturation mutants, chemokines on streptavidin beads, UniProt entry names
Excerpt: (§1) FIG. 7. Exemplar results from phage display screens using saturation mutagenesis. A phage-display library was constructed using the HD2 sequence, replacing each residue encoding codon with the degenerate sequence NNK. The 16 degenerate sequences (which also encoded the parental HD2 sequence) were pooled and cloned into display phage. […] Exemplar peptides were selected such that log 2 E for at least one chemokine was greater than 5, and log 2 E for binding to control (CO5, was less than zero). […] The fold enrichment of parental HD2 is also indicated.
as §1, with “A” for “FIG. 7. Exemplar results from phage display screens using saturation mutagenesis. A”
A molecular level understanding of binding mechanism is needed for development of peptides as therapeutics and is usually obtained from structural analyses. As HD2 binds many chemokines this becomes a challenging task, and we explored if we could elucidate this using phage display mutagenesis. The role of each residue in HD2 for binding was examined in phage-display. A library of HD2 mutations that had NNK substituted at each residue and performed phage-display selection against a panel of 24 biotinylated chemokines, in parallel, as described in Example 7. This strategy allowed us to evaluate the impact not only of Ala substitutions, but also conservative, hydrophilic and hydrophobic substitutions, and compare with binding of parental HD2 which is also included in the library. Ala substitution removes side-chains beyond the β-carbon and can be used to infer the role of side-chain functional groups without affecting conformational flexibility of the backbone. […] These residues are within the two motifs identified previously. Other notable residues identified were Y8 and P10. We next judged the impact of Ala mutation by calculating the change in log 2 E (Δlog 2 E) between the mutant and parental HD2. A positive value of Δlog 2 E indicates increased binding, and a negative value decreased binding compared to parental HD2. […] As may be seen, the log 2 E for the parental HD2 was ~0 in these analyses indicating lack of enrichment.
Oligonucleotide pools were amplified using primers: oligo_fwd: 5′-[…] and oligo_rev2: 5′-tcgtcaccctcggcgcctcctcoggatcctccacc. Oligonucleotide PCR products were cloned into plasmid prSTOP4Nsi using NEB Builder HiFi Assembly following instructions of the manufacturer. The vector pool was used to transform electrocompetent Invitrogen ElectroMAX™ DH5α-E™ cells. Plasmid DNA was harvested by MaxiPrep (GeneJet Plasmid Maxiprep Kit) and was transformed into SS320 phage display electrocompetent cells (Lucigen), following the manufacturer's protocol, resuspended in 950 μL recovery media for each electroporation, transferred to 50 mL Falcon tubes, 100 μL 1011 CFU/mL M13KO7 helper phage (NEB) added and shaken at 37° C., 220 RPM for 1 h. 1 mL recovery culture was added to 2YT medium containing +50 ug/mL carbenicillin and 25 ug/mL kanamycin, and grown overnight at 37C, 220 rpm. Phage was precipitated from the culture supernatant by adding 22.5 mL of supernatant to 4.5 mL 20% PEG 8000/2.5 M NaCl, incubating on ice for 30 min, and centrifuging at 10,000 RPM, 4° C. for 10 min, and resuspending phage in 1 ml of PBT, followed by centrifugation at 13000 RPM, 4° C., for 10 min. […]

[2] = tested on: CC and CXC chemokines; test: Chemokine-induced cell migration assays, pooled over chemokines (meta-analysis); assay type: cell-based, human; conditions: single HD2 mutations; nine CC and six CXC chemokines
Method: FIG. 16. Effect of HD2 alanine mutations on chemotaxis. […] All experiments were performed as three technical and three biological replicates, and individual data points are indicated, and coloured by the chemokine used. Statistically significant differences (compared to control, coloured blue), using Dunnett's test with correction for multiple comparisons, are indicated by asterisks: ****=P≤0.0001, ***=P≤0.001, **=P≤0.01, *=P≤[…] observations per group (three technical and three biological replicates for each chemokine). FIG. 16B, Faceted plots of change in median normalised cell count between alanine mutant and wild-type HD2 peptide obtained in cell migration assays (Y-axis, Δmedian normalised cell count) versus alanine mutated residue (X-axis). Chemokines used for each experiment are indicated in the strip to the right of each plot. Statistically significant differences compared to parental HD2 are shown as red dots. […] Scatterplot of Δmedian normalised cell count (Y-axis, obtained in cell migration assays) versus Δlog 2 E (obtained in phage-display experiments) for peptide:chemokine pairs. Individual data points indicate peptide chemokine pairs for which both cell migration and Δlog 2 E were available. Linear regression plot with 95% confidence interval, Spearman correlation coefficient (R) and statistical significance (p) are shown.
FIG. 19. […] All experiments were performed as at least three technical and three biological replicates, and individual data points are indicated, and coloured by the chemokine used, for all chemokines studied (n=16 chemokines). Statistically significant differences (compared to control, coloured blue), using Dunnett's test with correction for multiple comparisons, are indicated by asterisks: ****=P≤0.0001, ***=P≤0.001, **=P≤0.01, *=P≤0.05.
(§2) Briefly, cell migration assays use THP1 cells (human monocyte) and primary human buffy coat white cells (consisting of neutrophil granulocytes, monocytes, and lymphocytes), and activated T-cells. THP1 cells and primary monocytes respond to CCL2, CCL3, CCL5, CCL8 and CXCL4, granulocytes to CXCL1 and CXCL8, activated T-cells to CXCL9/10/11. Assays are performed in 96-well Boyden chambers, and migrated cells counted and characterized using and ATTUNE Flow Cytometer as described. Triplicate assays are performed at the EC80 dose of each chemokine at 10 μM peptide concentration.
(§3) The J:CXCR1 cell line was generated by transfecting Jurkat cells by electroporation with PvuI-linearized plasmid D1398 and selecting with blasticidin (Sigma-Aldrich, Cat #203350, […]). […] J:CXCR1 cells were cultured in RPMI-1640 media (Gibco), supplemented with 10% FBS and 5 mM L-Glutamine with blasticidin. For J:CXCR1 migration assays, 300,000 cells/well were added to the top chamber of a 3 μm Transwell insert (Corning) in 50 μL of migration media (RPMI-1640, 0.5% FBS, 4 mM L-Glutamine, 0.05% DMSO). The bottom chamber contained 150 μL of chemokine, with or without peptide. Cells were migrated at 37° C. in 5% CO2 for 4 hours. The plate was incubated on a shaking platform for 10 minutes, 800 rpm, at 37° C., and 150 μL from the bottom of the plate transferred into a U-bottom plate containing 50 μL of migration media.

[3] = biological target: T1, CCL8 (Homo sapiens, UniProt P80075); test: cell-based; conditions: peptide 10 μM, chemokine at EC80, versus scrambled control HD2SCR
T1 construct: purchased Peprotech
T1 sequence (P80075 24-99): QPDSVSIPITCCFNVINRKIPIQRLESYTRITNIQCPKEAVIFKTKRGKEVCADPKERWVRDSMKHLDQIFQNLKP
Method: (§4) FIG. 2. […] BK1.2 is described in (Darlot, 2020). […] Chemokines used are indicated by the name, followed in parenthesis by the supplier code (P in supplier code indicates Peprotech). […] All experiments were performed at EC80 doses of indicated chemokine. Data are shown as box-whisker plots of three technical and three biological replicates. Statistically significant differences (compared to control, indicated by #), using Dunnett's test with correction for multiple comparisons, are indicated by asterisks: ****=P≤0.0001, ***=P≤0.001, **=P≤0.01, *=P≤0.05.
FIG. 3. […] Chemokines used are indicated by the name, followed in parenthesis by the supplier code (P in supplier code indicates Peprotech). […] All experiments were performed at EC80 doses of indicated chemokine.
as §2
as §3, with “The plate was incubated on a shaking platform for 10 minutes, 800 rpm, at 37° C., and 150 μL from the bottom of the plate transferred into a U-bottom plate containing 50 μL of migration media.” left out

[4] = tested on: panel of up to 42 human chemokines; test: Phage-display next generation sequencing screen of overlapping hexadecapeptide libraries, chemokines displayed on streptavidin beads; assay type: binding; conditions: log2E greater than 5, chemokines named by first part of UniProt Entry Name, peptides binding complement C5a (control) excluded;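 also: chemokine listed when log2 fold enrichment exceeds 5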
Summary of the method: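 Phage-display libraries of 55662 overlapping hexadecapeptides from tick and viral chemokine-binding proteins, human chemokines and chemokine receptors screened against up to 42 human chemokines, with hits found by next-generation sequencing. Peptides mapped to parent-protein position with log2 fold enrichment; regions of interest where cumulative residue log2 E exceeds the 95% upper CI of the protein median.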

[5] = biological target: T2, CCL21 (Homo sapiens, UniProt O00585); test: CCL21-induced cell migration assay; assay type: cell-based; conditions: HD2 mutant peptides 10 μM, chemokine at EC80
T2 sequence (O00585 24-134): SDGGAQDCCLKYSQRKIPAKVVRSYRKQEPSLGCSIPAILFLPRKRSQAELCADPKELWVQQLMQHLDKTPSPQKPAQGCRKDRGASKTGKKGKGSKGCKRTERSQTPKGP
Method: FIGS. 24 and 25. Effect of exemplar mutant HD2 peptides on chemotaxis. Box-whisker plots showing the effect of the exemplar mutant HD2 peptides on cell migration induced by indicated human chemokines. All experiments were performed as at least three technical and between one to three biological replicates, and individual data points are indicated. […] Chemokine and cell type names are indicated. HD2SCR is a scrambled version of HD2 used as negative control. All peptides were at 10 μM final concentration and chemokines at EC80 doses. Statistically significant differences (compared to control, coloured blue), using Dunnett's test with correction for multiple comparisons, are indicated by asterisks: ****=P≤0.0001, ***=P≤0.001, **=P≤0.01, *=P≤0.05.
(§5) The J:CXCR1 cell line was generated by transfecting Jurkat cells by electroporation with PvuI-linearized plasmid D1398 and selecting with blasticidin (Sigma-Aldrich, Cat #203350, […]). […] J:CXCR1 cells were cultured in RPMI-1640 media (Gibco), supplemented with 10% FBS and 5 mM L-Glutamine with blasticidin. For J:CXCR1 migration assays, 300,000 cells/well were added to the top chamber of a 3 μm Transwell insert (Corning) in 50 μL of migration media (RPMI-1640, 0.5% FBS, 4 mM L-Glutamine, 0.05% DMSO). The bottom chamber contained 150 μL of chemokine, with or without peptide. Cells were migrated at 37° C. in 5% CO2 for 4 hours. The plate was incubated on a shaking platform for 10 minutes, 800 rpm, at 37° C., and 150 μL from the bottom of the plate transferred into a U-bottom plate containing 50 μL of migration media. Cell counts were determined by Attune NxT Flow Cytometer Plate Reader (ThermoFisher), based on cell size parameters FSC-H/SSC-H. Experiments were performed in 3 technical and 3 biological replicates. THP-1 migration assays were carried out using methods known in the art. Activated T-cell assays were carried out using methods known in the art, with the following modifications in the isolation process. Peripheral blood cells were obtained from leucocyte cones (NHS Blood Transfusion Services), following which, T-cells were isolated using two rounds of human CD8+ T-cell isolation kit (480011, BioLegend). At day 10 after activation, T-cells were frozen at 20 E6 cells/ml in TexMACS medium supplemented with 10% DMSO (D2650, Sigma) in liquid nitrogen. Prior to use, activated T-cells were recovered for 24 hours in TexMACs medium at 0.3 E6 cells/ml and incubated at 37° C. in 5% CO2. Chemokine sources are described in Supplementary information Table 3. Statistical significances between control experimental groups was evaluated using Dunnett's test. IC50 experiments were performed at the EC80 dose of chemokine. EC80 was calculated by fitting a chemokine dose-response curve with 3 parameters (fixing the top to 100%). IC50 was calculated by fitting an inhibitor response curve with 4 parameters.
Migration assays using THP1, activated T-cell (ATC) and J:CXCR1 (Jurkat cells stably transfected with CXCR1 receptor) were performed as described previously. IC50 experiments were performed at the EC80 dose of chemokine. EC80 was calculated by fitting a chemokine dose-response curve with 3 parameters (fixing the top to 100%). IC50 was calculated by fitting an inhibitor response curve with 4 parameters. R-packages used were ggupset_0.3.0, DescTools_0.99.44, and drc_3.0-1.

[6] = biological target: T3, CXCL9 (Homo sapiens, UniProt Q07325); test: CXCL9-induced activated T-cell migration, transwell assay; assay type: cell-based; conditions: HD2 mutant peptides 10 μM, chemokine at EC80
T3 construct: purchased Peprotech
T3 sequence (Q07325 23-125): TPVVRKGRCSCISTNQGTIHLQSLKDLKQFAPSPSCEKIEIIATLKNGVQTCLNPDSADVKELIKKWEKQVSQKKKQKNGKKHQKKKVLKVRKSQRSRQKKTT
Method: as §4, §2, §5

Sequence | Chemokines Bound log2E 1-5 [1] | Chemokines Bound log2E > 5 [1] | mean log 2 E compared to parental HD2 ([1]; over CC chemokines) | mean log 2 E compared to parental HD2 ([1]; over all chemokines) | chemotaxis inhibition compared with HD2, meta-analysis [2] | inhibition of cell migration [3] | Chemokines Bound [4] | chemotaxis compared with the parental HD2 peptide [5] | chemotaxis compared with the parental HD2 peptide [6]
EEDDYDAYAPLTCYFT [HD2_D6] | CCL15, CCL17, CCL18, CCL19,; also recorded: CCL22, CCL28, CCL3, CCL4,; also recorded: CCL5, CCL8, X3CL1, CXL10,; also recorded: CXL11, CXL14, IL8 | CCL1, CCL11,; also recorded: CCL2, SDF1,; also recorded: CXL13 | significant improvement | significant improvement | did not improve chemotaxis in any assay | – | – | – | –
DEDYEDFFKPVTCYFA [HD540] | – | – | – | – | – | inhibition | CCL18, CCL22,; also recorded: CCL5, CCL8 | – | –
EEDDYTAYAPITCYFT [HD2_I11] | CCL1, CCL11, CCL17, CCL18,; also recorded: CCL19, CCL2, CCL22, CCL28,; also recorded: CCL3, CCL4, CCL5, CCL8, X3CL1,; also recorded: CXL10, CXL11, SDF1, CXL13, IL8 | CCL15 | significant improvement | significant improvement | – | – | – | significant reduction in chemotaxis | significant reduction in chemotaxis
